Target: T1, myoferlin (MYOF) (Homo sapiens, UniProt Q9NZM1)
T1 construct: C2D domain (F3 construct, amino acids 1116–1272, GST fusion in pGEX4T-1; ~44 kDa in SPR)
T1 sequence (Q9NZM1 1116-1272): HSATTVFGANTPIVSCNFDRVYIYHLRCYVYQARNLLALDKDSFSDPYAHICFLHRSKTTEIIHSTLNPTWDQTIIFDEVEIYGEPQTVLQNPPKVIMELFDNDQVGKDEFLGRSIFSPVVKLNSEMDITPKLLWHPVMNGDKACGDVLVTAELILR
Assay: SPR (Biacore X-100, C2D immobilized on CM5 chip); supported by competition pull-down with WJ460-biotin
Format: binding

Kd: ~1330 nM
SMILES: COc1ccccc1N1C(=O)CSC1c1cccc(C(=O)NCCCCc2ccccc2)c1 (stereo not shown) [WJ460]
